The values below come from patent US4201786A, “Water soluble pesticidal quaternary ammonium salt compounds” (Union Carbide Corporation, priority 1977, dated 1980).

Series [1] deals with Mexican bean beetle (Epilachna varivestis, Muls.). Kind of series: Mexican bean beetle leaf spray test. Format: in vivo. Details: key: A: Excellent control; B: Partial control; C: No control. The following applies: 500 ppm, three days. The method, then:
(§1) Suspensions of the test compounds were prepared by dissolving one gram of compound in 50 milliliters of acetone in which had been dissolved 0.1 gram (10 percent of the weight of compound) of an alkylphenoxy polyethoxyethanol surfactant, as an emulsifying or dispersing agent. The resulting solution was mixed into 150 milliliters of water to give roughly 200 milliliters of a suspension containing the compound in finely divided form. The thus-prepared stock suspension contained 0.5 percent by weight of test compound. The test concentrations in parts per million by weight employed in the tests described hereinbelow were obtained by appropriate dilutions of the stock suspension with water. The test procedures were as follows:
Fourth instar larvae of the Mexican bean beetle (Epilachna varivestis, Muls.) reared on Tendergreen bean plants at a temperature of 80°±5° and 50±5 percent relative humidity, were the test insects.
The test compounds were formulated by diluting the stock suspension with water to give a suspension containing 500 parts of test compound per million parts of final formulation. Potted Tendergreen bean plants of standard height and age were placed on a revolving turntable and sprayed with 100-110 milliliters of test compound formulation by use of a DeVilbiss spray gun set at 10 psig air pressure. This application, which lasted 25 seconds was sufficient to wet plants to run-off. As a control, 100-110 milliliters of a water-acetone-emulsifier solution containing no test compound were also sprayed on infested plants. When dry, the paired leaves were separated and each was placed in a 9 centimeter Petri dish lined with moistened filter paper. Five randomly selected larvae were introduced into each dish, and the dishes were closed. The closed dishes were labeled and held at a temperature of 80°±5° F. for three days. Although the larvae could easily consume the leaf within 24 to 48 hours, no more food was added. Larvae which were unable to move the length of the body, even upon stimulation, were considered dead.
(§2) In these test the pesticidal activity of the compounds against aphid, mite, Southern Armyworm, Mexican Bean Beetle, and house fly was rated as follows: […]

Another series concerns Corn. Kind of series: Phytotoxicity test, corn. On the set-up: key: 1: no perceptible injury; 2: intermediate degrees of injury based upon the number and extent to which leaves were injured; 3: intermediate degrees of injury based upon the number and extent to which leaves were injured; 4: intermediate degrees of injury based upon the number and extent to which leaves were injured; 5: the plant was dead. The following applies: 2500 ppm spray, after ten days. Format: in vivo. The procedure: as §1
(§3) Experiments were also conducted to determine the phytotoxicity of representative compositions with respect to healthy fresh plants. Solutions of the compounds were prepared as described above to provide a concentration of 2500 parts per million of the test compound. The test plants were sprayed in accordance with the procedure described above for the Mite Foliage Spray Test so as to deliver approximately 100 milliliters of test solution to the leaves of each plant tested. The sprayed plants and controls were set aside for approximately one hour to allow the solutions to dry and were then placed in the greenhouse. After ten days the plants were visually inspected to determine the extent of foliage injury. A rating of 1 indicates no perceptible injury; 5 indicates the plant was dead and ratings of 2, 3 and 4 indicate intermediate degrees of injury based upon the number and extent to which leaves were injured.

The subject of another series is Bean. Kind of series: Phytotoxicity test, bean. Format: in vivo. Details: key: 1: no perceptible injury; 2: intermediate degrees of injury based upon the number and extent to which leaves were injured; 3: intermediate degrees of injury based upon the number and extent to which leaves were injured; 4: intermediate degrees of injury based upon the number and extent to which leaves were injured; 5: the plant was dead. The following applies: 2500 ppm spray, after ten days. The procedure:
as §1, §3

The test system of a further series is Cotton. Kind of series: Phytotoxicity test, cotton. It is filed as in vivo. On the set-up: key: 1: no perceptible injury; 2: intermediate degrees of injury based upon the number and extent to which leaves were injured; 3: intermediate degrees of injury based upon the number and extent to which leaves were injured; 4: intermediate degrees of injury based upon the number and extent to which leaves were injured; 5: the plant was dead. The following applies: 2500 ppm spray, after ten days. The procedure: as §1, §3

Series [2] deals with southern armyworm (Prodenia Eridania, (Cram.)). Kind of series: Southern armyworm leaf spray test. On the set-up: key: A: Excellent control; B: Partial control; C: No control. The following applies: 500 ppm, three days. Format: in vivo. The procedure: as §1
Larvae of the southern armyworm (Prodenia Eridania, (Cram.), reared on Tendergreen bean plants at a temperature of 80°±5° F. and relative humidity of 50±5 percent, constituted the test insects.
The test compounds were formulated by diluting the stock suspension with water to give a suspension containing 500 parts of test compound per million parts of final formulation. Potted Tendergreen bean plants of standard height and age were placed on a revolving turntable and sprayed with 100-110 milliliters of test compound formulation by use of a DeVilbiss spray gun set at 10 psig. air pressure.
This application which lasted 25 seconds was sufficient to wet plants to run-off. As a control, 100-110 milliliters of a water-acetone-emulsifier solution containing no test compound were also sprayed on infested plants. When dry, the paired leaves were separated and each one was placed in a 9 centimeter Petri dish lined with moistened filter paper. Five randomly selected larvae were introduced into each dish and the dishes were closed. The closed dishes were labeled and held at 80°-85° F. for three days. Although the larvae could easily consume the whole leaf within twenty-four hours, no more food was added. Larvae which were unable to move the length of the body, even upon stimulation by prodding, were considered dead. Percent mortality was recorded for various concentration levels.
as §2

The subject of series [3] is house flies (Musca domestica, L.). Kind of series: Fly bait test. Format: in vivo. Details: key: A: Excellent control; B: Partial control; C: No control. The following applies: 500 ppm, bait in 10 percent sugar solution, twenty four hours. The method, then:
as §1
Four to six day old adult house flies (Musca domestica, L.) reared according to the specifications of the Chemical Specialties Manufacturing Association (Blue Book, McNair-Dorland Co., NY., 1954; pages 243-244, 261) under controlled conditions of 80°±5° F. and 50±5 percent relative humidity, were the test insects. The flies were immobilized by anesthetizing with carbon dioxide and twenty five immobilized individuals, males and females, were transferred to a cage consisting of a standard food strainer about five inches in diameter which was inverted over a wrapping-paper-covered surface. The test compounds were formulated by diluting the stock suspension with a 10 percent (by weight) sugar solution to give a suspension containing 500 parts of test compound per million parts of final formulation, by weight. Ten milliliters of the test formulation were added to a souffle cup containing a one inch square of an absorbent cotton pad. This bait cup was introduced and centered on the blotting paper under the food strainer prior to admitting the anesthetized flies. The caged flies were allowed to feed on the bait for twenty four hours, at a temperature of 80°±5° F. and the relative humidity of 50±5 percent.
as §2

Another series deals with Soybean. Kind of series: Phytotoxicity test, soybean. On the set-up: key: 1: no perceptible injury; 2: intermediate degrees of injury based upon the number and extent to which leaves were injured; 3: intermediate degrees of injury based upon the number and extent to which leaves were injured; 4: intermediate degrees of injury based upon the number and extent to which leaves were injured; 5: the plant was dead. Format: in vivo. The following applies: 2500 ppm spray, after ten days. The procedure: as §1, §3

Series [4] is described as follows: Water solubility (Table I). Format: physicochemical. The following applies: 25° C.

Turning to `CN(C(=O)C[N+](C)(C)C)C(=O)Oc1cccc2c1OC(C)(C)C2`, the “Pesticidal activity, Mexican Bean Beetle” value in series [1] was “A”. In addition, the “POST-Emergent Herbicidal (phytotoxicity rating), Corn” value (shortened to “POST-Emergent Herbicidal … Corn”) with Corn turned out to be 1. Besides, the “POST-Emergent Herbicidal (phytotoxicity rating), Bean” value in the series with Bean is recorded as 1. Moreover, the “POST-Emergent Herbicidal (phytotoxicity rating), Cotton” value (“POST-Emergent Herbicidal … Cotton” below) in the series with Cotton is reported as 2. Moreover, the “Pesticidal activity, Southern Armyworm” value in series [2] is “A”. Further, in series [3], the “Pesticidal activity, Fly” value was “A”. The “POST-Emergent Herbicidal (phytotoxicity rating), Soybean” value (“POST-Emergent Herbicidal … Soybean” below) in the series on Soybean was found to be 2. The concentration in solution in series [4] (solubility) was 570 mg/mL.

As to `CN(C(=O)C[n+]1ccn(C)c1)C(=O)Oc1cccc2c1OC(C)(C)C2`, the “Pesticidal activity, Mexican Bean Beetle” value in series [1] is reported as “A”. The “POST-Emergent Herbicidal … Corn” value with Corn was 1. In the series with Bean, the “POST-Emergent Herbicidal (phytotoxicity rating), Bean” value was 2. In the series on Cotton, the “POST-Emergent Herbicidal … Cotton” value came out at 1. In series [2], the “Pesticidal activity, Southern Armyworm” value is listed as “A”. For the same compound, in series [3], the “Pesticidal activity, Fly” value is reported as “A”. The “POST-Emergent Herbicidal … Soybean” value in the series with Soybean was 2. Besides, in series [4], the concentration in solution (solubility) was 370 mg/mL.

Take `CN(C(=O)C[n+]1ccc(N(C)C)cc1)C(=O)Oc1cccc2c1OC(C)(C)C2`: in series [1], the “Pesticidal activity, Mexican Bean Beetle” value was “A”. In addition, in the series with Corn, the “POST-Emergent Herbicidal … Corn” value was found to be 1. Further, the “POST-Emergent Herbicidal (phytotoxicity rating), Bean” value with Bean turned out to be 2. Also, the “POST-Emergent Herbicidal … Cotton” value in the series on Cotton worked out at 1. Moreover, the “Pesticidal activity, Southern Armyworm” value in series [2] is on record as “A”. In series [3], the “Pesticidal activity, Fly” value is “A”. Moreover, the “POST-Emergent Herbicidal … Soybean” value with Soybean was found to be 2. Besides, the concentration in solution in series [4] (solubility) came to 160 mg/mL.

As for `CN(C(=O)C[N+]1(C)CCCC1)C(=O)Oc1cccc2c1OC(C)(C)C2`, the “Pesticidal activity, Mexican Bean Beetle” value in series [1] is “A”. In addition, the “POST-Emergent Herbicidal … Corn” value in the series on Corn worked out at 1. Moreover, the “POST-Emergent Herbicidal (phytotoxicity rating), Bean” value in the series with Bean was 2. Also, in the series on Cotton, the “POST-Emergent Herbicidal … Cotton” value came to 2. The “Pesticidal activity, Southern Armyworm” value in series [2] was “A”. Besides, in series [3], the “Pesticidal activity, Fly” value is given as “A”. The “POST-Emergent Herbicidal … Soybean” value in the series on Soybean worked out at 2. Also, the concentration in solution in series [4] (solubility) came to 490 mg/mL.

As for `CCCCCCCCCCCCCCCCCC[N+](C)(C)CC(=O)N(C)C(=O)Oc1cccc2c1OC(C)(C)C2`, the “Pesticidal activity, Mexican Bean Beetle” value in series [1] is “A”. Further, the “POST-Emergent Herbicidal … Corn” value with Corn amounted to 2. Besides, in the series with Bean, the “POST-Emergent Herbicidal (phytotoxicity rating), Bean” value stood at 2. For the same compound, the “POST-Emergent Herbicidal … Cotton” value in the series with Cotton turned out to be 2. Also, the “Pesticidal activity, Southern Armyworm” value in series [2] is reported as “A”. Also, the “Pesticidal activity, Fly” value in series [3] is “A”. Further, the “POST-Emergent Herbicidal … Soybean” value with Soybean was 2. Also, the solubility (commonly how much of the substance goes into solution per volume) in series [4] is greater than 250 mg/mL.

In the case of `CCCCCCCCCCCC[N+](C)(C)CC(=O)N(C)C(=O)Oc1cccc2c1OC(C)(C)C2`, the “Pesticidal activity, Mexican Bean Beetle” value in series [1] is “A”. Moreover, in the series on Corn, the “POST-Emergent Herbicidal … Corn” value was determined as 2. Moreover, in the series on Bean, the “POST-Emergent Herbicidal (phytotoxicity rating), Bean” value turned out to be 2. The “POST-Emergent Herbicidal … Cotton” value in the series with Cotton was 2. Besides, the “Pesticidal activity, Southern Armyworm” value in series [2] is on record as “A”. Also, the “Pesticidal activity, Fly” value in series [3] is “A”. Moreover, the “POST-Emergent Herbicidal … Soybean” value with Soybean amounted to 2. Also, the solubility in series [4] was greater than 250 mg/mL.
